Values of other authors in paper PMC8252455, “Prediction of a clinically effective dose of THY1773, a novel V 1B receptor antagonist, based on preclinical data” (Biopharmaceutics & Drug Disposition, 2021).

Tested on: depressive symptoms
Set-up: method as in Griebel, Beeské, & Stahl, 2012
Settings: patients with MDD; ref Griebel, Beeské, & Stahl, 2012; cited from earlier work

For `COc1ccc(S(=O)(=O)N2C(=O)[C@@](c3ccccc3OC)(N3C[C@H](O)C[C@H]3C(=O)N(C)C)c3cc(Cl)ccc32)c(OC)c1` [SSR149415], the “Antidepressant effect in MDD trials” value is listed as “failed to demonstrate clear antidepressant effects”.
